How the values were obtained:
PcCel6A [1] = biological target: T1, PcCel6A (Phanerodontia chrysosporium, UniProt Q02321); experiment: hydrolysis in crystal soak, inferred from bound product in X-ray structure; format: biochemical; conditions: pH 5.0, 10 h soak; intact compound not seen in the structure
T1 construct: gene cbhII; catalytic domain only; N-terminal CBM and linker (residues 1-81) deleted; pPICZalpha vector, secreted from Pichia pastoris; about 37 kDa; nonglycosylated in crystal; model residues 82-439; one molecule in asymmetric unit
T1 sequence (Q02321 entry or part of it): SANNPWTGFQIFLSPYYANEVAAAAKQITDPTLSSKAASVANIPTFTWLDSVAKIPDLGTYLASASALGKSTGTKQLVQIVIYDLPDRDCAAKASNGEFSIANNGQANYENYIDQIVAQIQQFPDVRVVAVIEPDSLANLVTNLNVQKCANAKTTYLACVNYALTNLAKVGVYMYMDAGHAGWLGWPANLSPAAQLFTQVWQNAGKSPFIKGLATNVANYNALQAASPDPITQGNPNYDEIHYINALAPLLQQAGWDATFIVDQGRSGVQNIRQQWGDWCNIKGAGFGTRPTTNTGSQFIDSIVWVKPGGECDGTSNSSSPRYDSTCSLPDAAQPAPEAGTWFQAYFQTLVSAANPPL

PcCel6A [2] = biological target: T1, PcCel6A; experiment: X-ray crystal structure, […] Å; format: binding; conditions: crystal soaked with pNPG3 for 10 h, pH 5.0; active site, subsites +1 and +2; loops closed; putative Tris at subsite -1

Row | SMILES | hydrolysis in crystal soak, inferred from bound product in X-ray structure (PcCel6A [1]) | X-ray crystal structure, 2.1 Å (PcCel6A [2])
1 | O=[N+]([O-])c1ccc(O[C@@H]2O[C@H](CO)[C@@H](O[C@@H]3O[C@H](CO)[C@@H](O[C@@H]4O[C@H](CO)[C@@H](O)[C@H](O)[C@H]4O)[C@H](O)[C@H]3O)[C@H](O)[C@H]2O)cc1 [p-nitrophenyl β-D-cellotrioside] | The observed α-cellobiose is considered to be a product of the hydrolysis of pNPG3 | 
2 | OC[C@H]1O[C@@H](O[C@H]2[C@H](O)[C@@H](O)[C@@H](O)O[C@@H]2CO)[C@H](O)[C@@H](O)[C@@H]1O [α-cellobiose] |  | The ligand-bound structure obtained from the pNPG3-soaked crystal contained one α-cellobiose molecule
